Source: paper PMC9704104, “Towards safer anti-inflammatory therapy: synthesis of new thymol–pyrazole hybrids as dual COX-2/5-LOX inhibitors” (Journal of Enzyme Inhibition and Medicinal Chemistry, 2022)

Assays:
Type in all cases: biochemical
5-LOX = assay: In vitro 5-LOX inhibitory assay (Abnova 5-LOX inhibitor screening assay kit)
From the text: The newly synthesised compounds were screened for their ability to inhibit 5-LOX enzymes. […] (Page: S21, Supplementary file). […]
In vitro LOX inhibitory assay
Inhibitor Screening Assay Kit detects and measures the hydroperoxides produced in the lipoxygenation reaction using a purified LOX. The detection reaction is equally sensitive to hydroperoxides at various positions within the fatty acid and will work with fatty acids of any carbon length. It is thus a general detection method for 5-LOX and can be used to screen libraries of compounds for those which inhibit 5 -LOX enzymes.
1) Blank Wells- add 100 µL of assay buffer to at least two wells.
2) Positive Control Wells- Lipoxygenase (15-LO standard) add 90 µL 15-LO and 10 µL of assay buffer […]
3) 100% Initial Activity Wells- add 90 µL 15-LO and 10 µL of solvent (DMSO) (the same solvent to dissolve the inhibitor) to two wells. The 100% initial activity wells should result in approximately 10 […]
4) Inhibitor Wells- add 90 µL of sample and I10 µL of inhibitor to two wells.
5) Initiate the reaction by adding 10 µL of substrate (either arachidonic acid or linoleic acid) to all the wells. Place the 96-well plate on a shaker for at least five minutes.
6) Add 100 µL of chromogen to each well to stop enzyme catalysis and develop the reaction. Cover with a plate cover and place the 96-well plate on a shaker for at least five minutes.
7) Remove the cover and read the absorbance at 490-500 nm using a plate reader.
Inhibitors were dissolved in DMSO. The inhibitors were added to the assay in a final volume of 10 µL before initiating with substrate. Three concentrations were prepared (25, 50 and 100 µM) to determine the concentration produced 50% enzyme inhibition.
(§1) 2) The absorbance of blank wells was subtracted from absorbance of the 100% Initial activity and the […]

COX-2 = target: T1, COX-2 (Ovis aries, UniProt P79208); assay: In vitro COX-2 inhibitory assay (Cayman colorimetric COX (ovine) inhibitor screening assay kit)
T1 sequence (P79208 17-603): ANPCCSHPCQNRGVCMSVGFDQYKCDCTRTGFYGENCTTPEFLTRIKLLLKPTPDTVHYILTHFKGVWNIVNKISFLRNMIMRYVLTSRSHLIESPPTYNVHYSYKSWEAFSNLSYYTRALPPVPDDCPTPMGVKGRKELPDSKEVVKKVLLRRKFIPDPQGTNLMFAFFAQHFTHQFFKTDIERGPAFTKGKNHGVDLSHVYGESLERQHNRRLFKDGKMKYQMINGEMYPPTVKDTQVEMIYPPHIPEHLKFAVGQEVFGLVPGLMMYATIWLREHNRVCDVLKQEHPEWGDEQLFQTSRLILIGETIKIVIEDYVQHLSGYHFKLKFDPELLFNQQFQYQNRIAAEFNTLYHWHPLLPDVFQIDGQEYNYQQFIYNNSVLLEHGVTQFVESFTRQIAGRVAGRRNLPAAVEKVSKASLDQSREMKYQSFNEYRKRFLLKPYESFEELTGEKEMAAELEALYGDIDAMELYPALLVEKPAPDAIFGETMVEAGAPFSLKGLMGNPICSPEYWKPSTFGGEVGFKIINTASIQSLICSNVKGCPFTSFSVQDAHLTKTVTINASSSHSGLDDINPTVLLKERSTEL
Experimental: (§2) (Page: S20, Supplementary file).
(§3) Anti-inflammatory activity
(§4) In vitro COX-1 and COX-2 inhibitory assay […]
(§5) supplied by Cayman chemicals, Ann Arbor, MI, USA according to reported method 1. The colorimetric COX inhibitor screening assay utilizes the peroxidase component of cyclooxygenase. The peroxidase activity was assayed calorimetrically by monitoring the appearance of oxidized N,N,N',N'-tetramethyl-1,4-phenylenediamine (TMPD) at 590nm. The appearance of reagent was carried out following the instructions […]
(§6) The half- maximal inhibitor concentrations (IC50µM) were determined and the selectivity index (SI) values were calculated as IC50 (COX-1)/IC50 (COX-2).
(§7) 1) Background wells- 160 µL of assay buffer and 10 µL of heme were added to background wells.
(§8) 2) The 100% Initial activity wells- 150 µL of assay buffer, 10 µL of heme and 10 µL of enzyme (COX-1 or COX-2) were added.
3) Inhibitor well- 150 µL of assay buffer, 10 µL of heme and 10 µL of enzyme were added. […]
10) The absorbance was measured at 590 nm using a plate reader. […]
(§9) 1) The average absorbance of all samples was determined.
(§10) 2) The absorbance of background wells was subtracted from absorbance of the 100% Initial activity […]
7) Remove the cover and read the absorbance at 490-500 nm using a plate reader. […]
as §1

COX-1 = target: T2, COX-1 (Ovis aries, UniProt P05979); assay: In vitro COX-1 inhibitory assay (Cayman colorimetric COX (ovine) inhibitor screening assay kit); settings: mean of three replicates ± SD
T2 construct: purchased Cayman chemicals 560131
T2 sequence (P05979 25-600): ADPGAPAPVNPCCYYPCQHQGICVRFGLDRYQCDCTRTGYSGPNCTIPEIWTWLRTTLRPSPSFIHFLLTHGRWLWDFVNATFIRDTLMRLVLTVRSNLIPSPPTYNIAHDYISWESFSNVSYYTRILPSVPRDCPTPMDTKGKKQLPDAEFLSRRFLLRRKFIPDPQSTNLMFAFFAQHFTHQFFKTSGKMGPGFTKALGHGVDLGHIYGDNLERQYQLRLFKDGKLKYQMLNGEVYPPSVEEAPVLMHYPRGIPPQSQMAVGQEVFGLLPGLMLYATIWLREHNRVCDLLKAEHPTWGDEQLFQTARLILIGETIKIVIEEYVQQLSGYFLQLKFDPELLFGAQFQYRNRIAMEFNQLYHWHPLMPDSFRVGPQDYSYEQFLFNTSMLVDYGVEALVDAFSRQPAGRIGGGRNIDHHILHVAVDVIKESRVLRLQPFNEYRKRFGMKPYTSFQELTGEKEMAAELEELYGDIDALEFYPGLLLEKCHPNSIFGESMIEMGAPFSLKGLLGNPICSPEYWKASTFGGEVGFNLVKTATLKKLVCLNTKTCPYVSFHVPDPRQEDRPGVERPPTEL
Experimental: as §2, §3, §4, §5, §6, §7, §8
3) Inhibitor well- 150 µL of assay buffer, 10 µL of heme and 10 µL of enzyme were added.
4) 10 µL of inhibitor (3 concentrations) in DMSO was added to the inhibitor wells to yield a final […]
5) 10 µL of solvent (DMSO) was added to the 100% Initial activity wells and background wells.
7) 20 µL of colorimetric substrate solution (TMPD) was added to all wells.
8) 20 µL of arachidonic acid was added to all wells to yield a final concentration of 100 µM.
10) The absorbance was measured at 590 nm using a plate reader.
The calculations were carried out in the following manner:
as §9, §10
3) Percent inhibition = (100% Initial activity – Inhibitor wells/ 100% Initial activity)∗ 100 […]
Place the 96-well plate on a shaker for at least five minutes. […]

Cc1ccc(C(C)C)c(O)c1C=NNC(=O)c1cc(-c2ccccc2)n(-c2ccccc2)n1 [Compound 8d, N'-(2-Hydroxy-3-isopropyl-6-methylbenzylidene)-1,5-diphenyl-1H-pyrazole-3-carbo-hydrazide]
IC50 (5-LOX): 3.11 ± 0.046 µM | Selectivity index (COX-2; SI = COX-1 IC50/COX-2 IC50): 92.6 | IC50 (COX-2; mean of three replicates ± SD): 0.11 ± 0.007 µM | IC50 (COX-1): 10.19 ± 0.036 µM
